# Laboratory results from patent US20110015080A1, “Solution-based methods for RNA expression profiling” (MASSACHUSETTS INSTITUTE OF TECHNOLOGY, priority 2005, published 2011).
# Tested on: HL-60 cells
# Experiment: Bead-based miRNA expression profiling of HL-60 cells treated with all-trans retinoic acid
# Assay type: cell-based, human
# Details: 1 μM all-trans retinoic acid, 1, 3 and 5 days
# Description: Details of sample information are available in Table 9. Total RNAs were prepared from tissues or cell lines using TRIzol (INVITROGEN™, Carlsbad, Calif.), as described (Ramaswamy et al., 2001), and in compliance with IRB protocols. Leukemia bone marrow mononuclear cells were collected from patients treated at ST. JUDE […]′S […] HOSPITAL™ and at DANA-FARBER CANCER […]™ and their immunophenotype and genotype determined as previously described (Ferrando et al., 2002; Yeoh et al., 2002). Normal mouse lung and mouse lung cancer samples were collected from KRasLA1 mice, and genotyped as described (Johnson et al., 2001). Lungs from four- to five-month old mice were inflated with phosphate-buffered saline prior to removal. Individual lung tumors and normal lungs were dissected and immediately frozen on dry ice before RNA preparation. HL-60 cells were plated at 1.5×10^5 cell/ml and induced to differentiate by 1 μM all-trans retinoic acid (SIGMA™, St. Louis, Mo.; in ethanol). […]
# miRNA capture probes were 5′-amino-modified oligonucleotides with a 6-carbon linker (IDT). […] Median fluorescence intensity values were measured.
# Profiling data were first scaled according to the post-labeling-controls and then the pre-labeling-controls, in order to normalize readings from different probe/bead sets for the same sample, and to normalize for the labeling efficiency, as detailed in Materials and Methods of Example 3. […]
compound,measurement,setting,value
"CC1=C(/C=C/C(C)=C/C=C/C(C)=C/C(=O)O)C(C)(C)CCC1 [tretinoin, all-trans-retinoic acid]",miRNA expression in HL-60 cells,,induction of many miRNAs coincident with differentiation
same,miRNA expression in HL-60 cells,listed as ATRA,increased expression of many miRNAs
